The values below are quoted from earlier work in patent US5656291A, “Controlled release preparation” (Pharmacia & Upjohn Aktiebolag, priority 1995, dated 1997).

The conditions of the data set: after oral administration.

Turning to `CN1CC[C@]23c4c5ccc(O)c4O[C@H]2[C@@H](O)C=C[C@H]3[C@H]1C5` [Morphine], the “duration of analgesic effect” value was 4 to 6 h.
